Source: PMC9220410, “Antiamoebic Properties of Laboratory and Clinically Used Drugs against Naegleria fowleri and Balamuthia mandrillaris” (Antibiotics, 2022)

Assays:
N. fowleri cysts = assay: Excystation assay, N. fowleri cysts; format: cell-based, Naegleria fowleri; conditions: Naegleria fowleri; 100 μM, after negating effects of solvent alone; read-out: Inhibition of excystation of N. fowleri
Procedure: (§1) Briefly, 5 × 10^5 amoebae cysts (N. fowleri and B. mandrillaris cells) were incubated with 100 μM drugs and/or solvent in 24-well plates containing RPMI-1640 on HeLa monolayers at 37 °C and 5% CO2 until around 75% of the cysts in RPMI-1640 alone have excysted. The RPMI-1640 alone was used as a negative control while DMSO and ethanol were used as a solvent control and 100 μM miltefosine was used as positive control. Live trophozoites (amoebae that excysted) were then quantified by counting live (unstained) cells, after addition of 0.1% Trypan blue to each well, using a haemocytometer. Percentage inhibition is defined as: [(Number of trophozoites in untreated well − Number of trophozoites in treated well)/Number of trophozoites in untreated well)] × 100. The data are representative of the mean ± standard error of several independent experiments performed in duplicate.
(§2) Figure 3 (A) Inhibition of excystation of N. fowleri cysts. N. fowleri cysts were incubated with 100 μM drugs and/or solvent in 24-well plates containing RPMI-1640 on HeLa monolayers for 24 h and number of viable trophozoites were then enumerated. Percentage inhibition of excystation was calculated by: [((RPMI trophozoite cell count − trophozoite cell count for sample)/RPMI trophozoite cell count) × 100)]. The activities of solvents alone were negated from the activities of the compounds. The data is presented as the mean ± standard error (*: p ˂ 0.05, **: p < 0.01, ***: p < 0.001 using student t-test; two tailed distribution). (B) Inhibition of excystation of B. mandrillaris cysts. B. mandrillaris cysts were incubated with 100 μM drugs and/or solvent in 24-well plates containing RPMI-1640 on HeLa monolayers for 24 h and number of viable trophozoites were then enumerated. Percentage inhibition of excystation was calculated by: [((RPMI trophozoite cell count − trophozoite cell count for sample)/RPMI trophozoite cell count) × 100)]. The activities of solvents alone were negated from the activities of the compounds. The data is presented as the mean ± standard error (*: p ˂ 0.05, **: p < 0.01, ***: p < 0.001 using student t-test; two tailed distribution).

B. mandrillaris cysts = assay: Excystation assay, B. mandrillaris cysts; format: cell-based; conditions: Balamuthia mandrillaris; 100 μM, after negating effects of solvent alone; read-out: Inhibition of excystation of B. mandrillaris
Procedure: as §1, §2

[1] = test system: B. mandrillaris trophozoites; assay: Amoebicidal assay against B. mandrillaris trophozoites (Trypan blue); format: cell-based, Balamuthia mandrillaris; conditions: for EC50: Balamuthia mandrillaris, trophozoites, 24 h, Trypan blue, read-out: Half maximal effective concentration (EC50), B. mandrillaris
Procedure: (§3) Amoebicidal assays were performed as previously described. Briefly, 5 × 10^5 amoebae (N. fowleri and B. mandrillaris cells) were incubated with drugs and/or solvents in 24-well plates in RPMI-1640. Amoebae were incubated with RPMI-1640 for negative controls while DMSO and ethanol were used as solvent control. For the positive control, the anti-amoebic drug, 100 μM miltefosine was used. Plates were incubated at 37 °C and 5% CO2 for 24 h. Next, 0.1% Trypan blue was added to each well. […] The number of live cells (i.e., unstained) was counted using a haemocytometer to determine amoebicidal effects of various compounds. The data are representative of the mean ± standard error of several experiments performed in duplicate.
(§4) Figure 2 The amoebicidal activities of compounds against B. mandrillaris trophozoites. B. mandrillaris trophozoites were incubated with various concentrations of compounds for 24 h and trophozoites viability was determined using Trypan blue. Percentage amoebicidal activity was calculated by: [((RPMI cell count − cell count for sample)/RPMI cell count) × 100)]. The activities of solvents alone were negated from the activities of the compounds. The data is presented as the mean ± standard error (*: p < 0.05, **: p < 0.01, ***: p < 0.001 using student t-test; two tailed distribution).

N. fowleri trophozoites = assay: Amoebicidal assay against N. fowleri trophozoites (Trypan blue); format: cell-based, Naegleria fowleri; conditions: for minimal effective concentration / EC50: Naegleria fowleri; for minimal effective concentration: compared to solvent control, p < 0.05, 24 h, read-out: Lowest concentration showing significant amoebicidal activity against N. fowleri; for EC50: trophozoites, 24 h, Trypan blue, read-out: Half maximal effective concentration (EC50), N. fowleri
Procedure: as §3
as §4, with “Figure 1” for “Figure 2”, “against N. fowleri” for “against B. mandrillaris”, “trophozoites. N. fowleri” for “trophozoites. B. mandrillaris”

[2] = set-up: method as in PMID 29206032, PMID 32548431; conditions: ref [24],[25],[26]; cited from earlier work
HaCaT cells = format: cell-based, human; conditions: LDH release, 24 h, concentration not given
Procedure: Cytotoxic effects of the drugs were determined as previously described^21. Briefly, the cytotoxic activity of the drugs was investigated against HaCaT cells. […] The LDH assay protocol is based on an enzymatic reaction, i.e., LDH released from the cell oxidizes lactate to generate NADH, which then reacts with water-soluble tetrazolium salt (WST) to generate a yellow color. The intensity of the generated color correlates directly with the number of lyzed cells. Following this, 1% Triton X-100 was added to the positive control well and incubated the plate for 60 min at 37 °C. For negative control, human cells were grown in RPMI alone well. Then, an equal amount of cells supernatant (comprising LDH enzyme) from each well was combined with equal amount of LDH kit reagents and cytotoxicity was determined in proportion to LDH released from human cells using a spectrophotometer at 490 nm. The percentage LDH released was determined as follows: [(Absorbance of sample − Absorbance of control)/(Absorbance for total LDH release − Absorbance of control)] × 100 = percentage cytotoxicity.
Figure 4 Cytotoxic effects of compounds against human cells are depicted. Various concentrations of compounds were incubated with human cells for 24 h at 37 °C and 5% CO2. RPMI alone was used as negative control and triton X-100 was used as positive control. Data are presented as the mean ± standard error of 2 experiments conducted in duplicates.

[3] = summary in discussion, concentration not given

Row | SMILES | inhibition at 100 µM (N. fowleri cysts) | inhibition at 100 µM (B. mandrillaris cysts) | EC50 [1] | Amoebicidal activity against B. mandrillaris [1, 3] | minimal effective concentration (N. fowleri trophozoites) | EC50 (N. fowleri trophozoites) | Amoebicidal activity against N. fowleri (N. fowleri trophozoites; [3]) | BBB Permeability [2] | Cytotoxicity against HaCaT cells (HaCaT cells)
1 | CC(C)C1CCC(C(=O)N[C@H](Cc2ccccc2)C(=O)O)CC1 (stereo partly drawn) [Nateglinide, (2R)-3-phenyl-2-[(4-propan-2-ylcyclohexanecarbonyl)amino]propanoic acid] | 42% | 57% | 136 µM | 39% | ≥ 6.25 µM | 44.4 µM | 64% | Positive | 2%
2 | CCOc1cc(CC(=O)N[C@@H](CC(C)C)c2ccccc2N2CCCCC2)ccc1C(=O)O [Repaglinide, 2-ethoxy-4-[2-[[(1S)-3-methyl-1-(2-piperidin-1-ylphenyl)butyl]amino]-2-oxoethyl]benzoic acid] | 49% | < 10% | 31.8 µM |  | 50 µM | 14.3 µM |  | Negative | did not exhibit any cytotoxicity
